Laboratory results published in patent publication US4950686A, “Anti-mycoplasma agent” (Shionogi & Co., Ltd., priority 1986, dated 1990).
Converted amounts (≈) assume the structure as drawn.

How the values were obtained:
[1] = tested on: Mycoplasma gallisepticum S6 (standard strain); assay: Anti-mycoplasma activity in vitro (MIC, broth dilution), strain S6; assay type: cell-based; conditions: Mycoplasmoides gallisepticum, 168 h, Mg S6, 37° C., 7 days; read-out: MIC
Description: (§1) (1) Anti-mycoplasma activity test in vitro
(§2) MIC values of each of Tropolones were measured on the following strains according to the following method.
(§3) (a) Mycoplasma gallisepticum
(§4) Medium: Chick PPLO broth supplemented with 20% equine serum (Eiken Kagaku Co., Ltd.)
(§5) Method: Broth dilution method
(§6) Inoculum: Culture incubated at 37° C. for 24-48 hr which is diluted with broth to 10^6 CCU/ml immediately before the use.
(§7) To 1.6 ml of the broth is added 0.2 ml of an agent which has been subjected to 2-fold dilution and then added 0.2 ml of inoculum, which is incubated at 37° C. for 7 days.

[2] = tested on: Mycoplasma gallisepticum T-7-T (wild strain, tylosin-resistant); assay: Anti-mycoplasma activity in vitro (MIC, broth dilution), strain T-7-T; assay type: cell-based; conditions: Mycoplasmoides gallisepticum, 168 h, Mg T-7-T, 37° C., 7 days; read-out: MIC
Description: as §1, §2, §3
(§8) T-7-T (wild strain, tylosin-resistant)
as §4, §5, §6, §7

[3] = tested on: Mycoplasma gallisepticum MR-1 (wild strain, tylosin-resistant); assay: Anti-mycoplasma activity in vitro (MIC, broth dilution), strain MR-1; assay type: cell-based; conditions: Mycoplasmoides gallisepticum, 168 h, Mg MR-1, 37° C., 7 days; read-out: MIC
Description: as §1, §2, §3
(§9) MR-1 (wild strain, tylosin-resistant)
as §4, §5, §6, §7

[4] = tested on: Mycoplasma hyopneumoniae ST-11 (standard strain); assay: Anti-mycoplasma activity in vitro (MIC, broth dilution), strain ST-11; assay type: cell-based; conditions: Mesomycoplasma hyopneumoniae, Mh ST-11; read-out: MIC
Description: as §1, §2
(b) Mycoplasma hyopneumoniae
Strain: ST-11 (standard strain)
Medium: 850 ml of Hanks' solution supplemented with 0.5% lactoalbumin, 50 ml of 25% yeast, 100 ml of equine serum and 4-6 ml of 0.5% phenol red (pH 7.4-7.6)
as §5
Inoculum: Culture which is incubated for 3-4 days and diluted 10 times with the broth if color of the broth becomes yellow then. If it needs over 4 days until color of the broth becomes yellow, it is further subcultured. This is diluted 10 times with the broth to give inoculum.
Assay is done in the same manner as in the above (a).

[5] = tested on: Mycoplasma gallisepticum T-7-T (wild strain, tylosin-resistant); assay: Mycoplasma gallisepticum air-sac infection method in chicken, strain T-7-T; assay type: in vivo, Mycoplasma gallisepticum; SPF chicken (white leghorn);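 for Index of Isolation: index = (P×1 + Q×2 + R×3)/S with range 0 to 6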
Description: (§10) (2) Test of Effectiveness Mycoplasma gallisepticum air-sac infection method
as §8
(§11) Inoculation: To the right air-sac of 9 days old SPF chicken (a white leghorn) which has abstained from water and feed one day before is inoculated 0.20-0.25 ml/chicken of fresh mycoplasma culture incubated for 24-48 hr and diluted with broth (usually 100 times). The concentration in Table 2 is shown in a unit of mg/ml.
(§12) Medium: Chick PPLO broth supplemented with 15% equine serum (Eiken Kagaku Co., Ltd.)
(§13) Administration: A compound of this invention dissolved or suspended in the following solution is orally and forcibly administered once by a cannula immediately after the infection.
(§14) Anatomization and Isolation of Microorganism: The chickens are anatomized 5 days after the infection, and the right and left air sacs are investigated whether they are attacked with a disease or not. The change caused by the disease is represented in four degrees; -: no change, +: slight, ++: medium and +++: serious. Microorganism is isolated from the right and left air-sacs and the trachea by using a sterilized applicator.
(§15) Judgement: Judgement is done through an index of an air-sac disease and an index of a microorganism-isolation.
(§16) Index of an air-sac-disease: First, indexes in the right and left air-sacs are separately calculated according to the following formula;
(§17) {degree of disease (0-3)×chickens}/anatomized chickens
(§18) and the index is calculated by the following formula;
(§19) (index of right air-sac)×1+(index of left air-sac)×2
(§20) Index of a microorganism isolation:
(§21) P: chickens from the right air-sac of which microorganism is isolated,
(§22) Q: chickens from the trachea of which microorganism is isolated,
(§23) R: chickens from the left air-sac of which microorganism is isolated, and
(§24) S: chickens investigated.

[6] = tested on: Mycoplasma gallisepticum MR-1 (wild strain, tylosin-resistant); assay: Mycoplasma gallisepticum air-sac infection method in chicken, strain MR-1;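 for Index of Isolation: index = (P×1 + Q×2 + R×3)/S with range 0 to 6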; assay type: in vivo, Mycoplasma gallisepticum; SPF chicken (white leghorn); conditions: 100 mg/kg × once oral, 10 mg/ml sol. b
Description: as §10, §9, §11, §12, §13, §14, §15, §16, §17, §18, §19, §20, §21, §22, §23, §24

[7] = 200 mg/kg × once oral, 20 mg/ml DW, inoculum 1.9 × 10^5
[8] = 200 mg/kg × once oral, 20 mg/ml DW, inoculum 1.9 × 10^5, range 0-6.0
[9] = 200 mg/kg × once oral, 20 mg/ml DW, inoculum 1.9 × 10^5, range 0-9.0
[10] = 100 mg/kg × once oral, 10 mg/ml sol. b, inoculum 10^2

Structure (SMILES): N#CSc1cccccc1=O [Compound 15, 2-Thiocyanatotropone]
- MIC [1]: 6.25 µg/mL (≈ 38.3 µM)
- MIC [2]: 6.25 µg/mL (≈ 38.3 µM)
- MIC [3]: 12.5 µg/mL (≈ 76.6 µM)
- MIC [4]: 0.39 µg/mL (≈ 2.39 µM)

Structure (SMILES): Cc1ccc(S(=O)(=O)Oc2cccccc2=O)cc1 [Compound 16, O-(p-Toluensulfonyl)tropolone]
- MIC [1]: 3.13 µg/mL (≈ 11.3 µM)
- MIC [4]: 6.25 µg/mL (≈ 22.6 µM)

Structure (SMILES): CC(Oc1cccccc1=O)C(=O)O (stereo not shown) [Compound 17, O-(1-Carboxyethyl)tropolone]
- MIC [1]: > 25 µg/mL
- MIC [4]: > 25 µg/mL

Structure (SMILES): CC(C)(C)OC(=O)COc1cccccc1=O [Compound 18, O-(tert-Butyloxycarbonylmethyl)tropolone]
- MIC [1]: > 25 µg/mL
- MIC [4]: > 25 µg/mL

Structure (SMILES): CCOC(=O)C(C)Oc1cccccc1=O (stereo not shown) [Compound 20, O-(1-Ethoxycarbonylethyl)tropolone]
- MIC [1]: > 25 µg/mL
- MIC [2]: > 25 µg/mL
- MIC [4]: > 25 µg/mL

Structure (SMILES): O=C(COc1cccccc1=O)c1ccccc1 [Compound 21, O-(Benzoylmethyl)tropolone]
- MIC [1]: 0.78 µg/mL (≈ 3.25 µM)
- MIC [4]: 0.2 µg/mL (≈ 0.832 µM)

Structure (SMILES): C=CCOc1cccccc1=O [Compound 22, O-Allyltropolone]
- MIC [1]: > 25 µg/mL
- MIC [4]: 25 µg/mL (≈ 154 µM)

Structure (SMILES): C[C@H]1c2cccc(O)c2C(=O)C2=C(O)[C@]3(O)C(=O)C(C(N)=O)=C(O)[C@@H](N(C)C)[C@@H]3[C@@H](O)[C@@H]21 [doxycycline, reference compound]
- Change of air-sac, left: + (chickens) [5, 7]: 2
- Change of air-sac, left: ++ (chickens) [5, 7]: 1
- Change of air-sac, left: +++ (chickens) [5, 7]: 0
- Change of air-sac, left: - (chickens) [5, 7]: 2
- Change of air-sac, right: + (chickens) [5, 7]: 0
- Change of air-sac, right: ++ (chickens) [5, 7]: 4
- Change of air-sac, right: +++ (chickens) [5, 7]: 0
- Change of air-sac, right: - (chickens) [5, 7]: 1
- Isolation, L (left air-sac) [5, 7]: 5
- Isolation, R (right air-sac) [5, 7]: 5
- Isolation, T (trachea) [5, 7]: 5
- Mycoplasma Isolated Chickens [5, 7]: 5
- Index of Isolation [5, 8]: 6.0
- Index of Disease [5, 9]: 3.2

Structure (SMILES): CC[C@H]1OC(=O)C[C@@H](O)[C@H](C)[C@@H](O[C@@H]2O[C@H](C)[C@@H](O[C@H]3C[C@@](C)(O)[C@@H](O)[C@H](C)O3)[C@H](N(C)C)[C@H]2O)[C@@H](CC=O)C[C@@H](C)C(=O)/C=C/C(C)=C/[C@@H]1CO[C@@H]1O[C@H](C)[C@@H](O)[C@@H](OC)[C@H]1OC [tylosin, reference compound]
- Change of air-sac, left: + (chickens) [5, 10]: 0
- Change of air-sac, left: ++ (chickens) [5, 10]: 2
- Change of air-sac, left: +++ (chickens) [5, 10]: 0
- Change of air-sac, left: - (chickens) [5, 10]: 6
- Change of air-sac, right: + (chickens) [5, 10]: 1
- Change of air-sac, right: ++ (chickens) [5, 10]: 5
- Change of air-sac, right: +++ (chickens) [5, 10]: 1
- Change of air-sac, right: - (chickens) [5, 10]: 1
- Isolation, L (left air-sac) [5, 10]: 8
- Isolation, R (right air-sac) [5, 10]: 7
- Isolation, T (trachea) [5, 10]: 8
- Mycoplasma Isolated Chickens [5, 10]: 8
- Index of Isolation ([5]; 100 mg/kg × once oral, 10 mg/ml sol. b, inoculum 10^2, range 0-6.0): 5.60
- Index of Disease ([5]; 100 mg/kg × once oral, 10 mg/ml sol. b, inoculum 10^2, range 0-9.0): 2.80
- Change of air-sac, left: + (chickens) [5, 7]: 0
- Change of air-sac, left: ++ (chickens) [5, 7]: 0
- Change of air-sac, left: +++ (chickens) [5, 7]: 0
- Change of air-sac, left: - (chickens) [5, 7]: 5
- Change of air-sac, right: + (chickens) [5, 7]: 0
- Change of air-sac, right: ++ (chickens) [5, 7]: 1
- Change of air-sac, right: +++ (chickens) [5, 7]: 4
- Change of air-sac, right: - (chickens) [5, 7]: 0
- Isolation, L (left air-sac) [5, 7]: 4
- Isolation, R (right air-sac) [5, 7]: 5
- Isolation, T (trachea) [5, 7]: 5
- Mycoplasma Isolated Chickens [5, 7]: 5
- Index of Isolation [5, 8]: 5.4
- Index of Disease [5, 9]: 2.8
- Change of air-sac, left: + (chickens) ([6]; inoculum 0.3 × 10^5): 1
- Change of air-sac, left: ++ (chickens) ([6]; inoculum 0.3 × 10^5): 0
- Change of air-sac, left: +++ (chickens) ([6]; inoculum 0.3 × 10^5): 0
- Change of air-sac, left: - (chickens) ([6]; inoculum 0.3 × 10^5): 5
- Change of air-sac, right: + (chickens) ([6]; inoculum 0.3 × 10^5): 0
- Change of air-sac, right: ++ (chickens) ([6]; inoculum 0.3 × 10^5): 3
- Change of air-sac, right: +++ (chickens) ([6]; inoculum 0.3 × 10^5): 3
- Change of air-sac, right: - (chickens) ([6]; inoculum 0.3 × 10^5): 0
- Isolation, L (left air-sac) ([6]; inoculum 0.3 × 10^5): 6
- Isolation, R (right air-sac) ([6]; inoculum 0.3 × 10^5): 6
- Isolation, T (trachea) ([6]; inoculum 0.3 × 10^5): 6
- Mycoplasma Isolated Chickens ([6]; inoculum 0.3 × 10^5): 6
- Index of Isolation ([6]; inoculum 0.3 × 10^5, range 0-6.0): 6.0
- Index of Disease ([6]; inoculum 0.3 × 10^5, range 0-9.0): 2.8
